Laboratory results: patent publication US20090209512A1, “NEUROGENESIS INDUCER OR NEUROPATHY THERAPEUTIC AGENT COMPRISING ALKYL ETHER DERIVATIVE OR SALT THEREOF” (Toyama Chemical Co., Ltd., priority 2006, published 2009)

Columns and labels:
[1] = tested on: cultured neural stem cells; details: Proc. Natl. Acad. Sci. U.S.A., 2004, 101(47), pp. 16659-64; cited from earlier work
[2] = tested on: cultured neural stem cells; experiment: Effect on differentiation of cultured neural stem cell (Tuj1-positive cell ratio); assay type: cell-based, ICR mouse
Method: Cultured neural stem cells were prepared according to the partially modified method of Hirabayashi (Development, 2004, 131(12), p. 2791-2801). The cerebrum was removed from an ICR mouse embryo (embryonic day 14) and incubated in artificial cerebrospinal fluid (124 mM NaCl, 5 mM KCl, 1.3 mM MgCl2, 2 mM CaCl2, 26 mM NaHCO3, 10 mM D-Glucose, pH 7.4) containing 0.0625% trypsin and 0.1 mg/mL of DNaseI at 37° C. for 5 min. A trypsin inhibitor (final concentration: 0.35 mg/mL) was then added and the mixture was centrifuged at 800 rpm for 5 min. The obtained pellet was dispersed by pipetting in a neural stem cell culture medium (DMEM/F-12 culture medium containing 20 ng/mL basic fibroblast growth factor, 20 ng/mL epidermal growth factor and B27 supplement (Invitrogen)) to obtain single cell suspension. […]
After 3 days of culturing, the cells were washed with phosphate-buffered saline (PBS), fixed with 4% paraformaldehyde/phosphate buffer, treated with 0.3% Triton X-100/PBS solution at room temperature for 5 minutes, washed with PBS, and incubated with 0.5% skim milk at room temperature for 1 hour. […] The cells were washed with PBS and observed under fluorescence microscope, and the number of the Tuj1-positive cells emitting red fluorescence was counted, and its ratio against the total cell number was calculated as the differentiation ratio into neurons representing a neurogenesis inducing effect.

Male DBA/2J mice = experiment: Novelty-suppressed feeding (NSF) test; assay type: in vivo; details: 10 mg/kg orally for 28 days
Method: The novelty-suppressed feeding (NSF) test (Santarelli et al., 2003, Science. 301: 805-9) was performed to assess antidepressant efficacy of T-817MA. Male DBA/2J mice (7 weeks old, 20-21 animals/group) were used. We administrated mice orally with T-817MA (10 mg/kg), or vehicle (distilled water) for 28 days before NSF test. At the time of testing, mice that had been food deprived for 24 hours were gently placed in a corner of a brightly lit arena (approximately 650 lux at floor of arena, 50×50×20 cm) for a maximum of 5 minutes. The floor was covered with approximately 2 cm of bedding. Pellet of food was attached by wire at the center of the arena. […] Statistical differences between vehicle group and T-817MA treated group were found by Dunnett test.

Compound	Neurogenesis inducing effect in cultured neural stem cells [1]	Differentiation ratio compared with control group (neurogenesis inducing effect) ([2]; T-817MA 10 μM vs B27 supplemented DMEM/F-12 alone)	Differentiation ratio into neurons (%) (Ratio of Tuj1 positive cells) ([2]; T-817MA 10 μM, 3 days of culturing, B27-supplemented DMEM/F-12, control group 13.0)	NSF latency (mean) (Male DBA/2J mice; mice food deprived 24 hours, vehicle 227.2) [s]	Latency to feed vs vehicle group (Male DBA/2J mice; P<0.01, Dunnett test)
CCCC(CCC)C(=O)O [valproic acid]	show the neurogenesis inducing effect	–	–	–	–
OC1CN(CCCOCCc2ccc3sccc3c2)C1 [T-817MA, 1-(3-(2-(1-benzothiophen-5-yl)ethoxy)propyl)azetidin-3-ol]	–	higher differentiation ratio	27.4	145.5	significant decreased latency to feed
